Test results reported in ChEMBL document CHEMBL5528044, “Exploring the Function of (+)-Naltrexone Precursors: Their Activity as TLR4 Antagonists and Potential in Treating Morphine Addiction” (J Med Chem, 2024).
Activity calls are given as the source filed them. The calls are words filed in the database; no cut-off is given here.

Key:
Mus musculus [1] = test: Inhibition of chronic morphine-induced microglia activation in Balb/c mouse assessed as reduction in microglia cell number in brain nucleus accumbens region at 0.2 mg/kg,ip administrated for 6 consecutive days by immunofluorescence staining based analysis; format: functional, organism-based
[2] = Toxicity in morphine-induced Balb/c mouse assessed body weight loss at 0.2 mg/kg,ip administrated for 1 week; format: organism-based; details: in vivo, 168 h, time 1 weeks
Mus musculus [3] = test: Inhibition of chronic morphine-induced microglia activation in Balb/c mouse assessed as reduction in TNF-alpha mRNA expression in brain ventral tegmental area region at 0.2 mg/kg,ip administrated for 6 consecutive days by qPCR analysis; format: functional, organism-based
Mus musculus [4] = test: Inhibition of chronic morphine-induced microglia activation in Balb/c mouse assessed as reduction in Iba1 expression in nucleus accumbens region at 0.2 mg/kg,ip administrated for 6 consecutive days by immunofluorescence staining based analysis; format: functional, organism-based
Mus musculus [5] = test: Inhibition of chronic morphine-induced microglia activation in Balb/c mouse assessed as reduction in microglia cell number in brain medial prefrontal cortex region at 0.2 mg/kg,ip administrated for 6 consecutive days by immunofluorescence staining based analysis; format: functional, organism-based
[6] = target: T1, Toll-like receptor 4 (Mus musculus) (UniProt Q9QUK6); test: Antagonist activity at TLR4 signaling pathway in mouse BV-2 cells assessed as inhibition of LPS-induced TRIF recruitment at 5 uM incubated for 1 hr by co-immunoprecipitation based Western blot analysis; format: cell-based; details: filed as antagonist
T1 sequence (whole entry): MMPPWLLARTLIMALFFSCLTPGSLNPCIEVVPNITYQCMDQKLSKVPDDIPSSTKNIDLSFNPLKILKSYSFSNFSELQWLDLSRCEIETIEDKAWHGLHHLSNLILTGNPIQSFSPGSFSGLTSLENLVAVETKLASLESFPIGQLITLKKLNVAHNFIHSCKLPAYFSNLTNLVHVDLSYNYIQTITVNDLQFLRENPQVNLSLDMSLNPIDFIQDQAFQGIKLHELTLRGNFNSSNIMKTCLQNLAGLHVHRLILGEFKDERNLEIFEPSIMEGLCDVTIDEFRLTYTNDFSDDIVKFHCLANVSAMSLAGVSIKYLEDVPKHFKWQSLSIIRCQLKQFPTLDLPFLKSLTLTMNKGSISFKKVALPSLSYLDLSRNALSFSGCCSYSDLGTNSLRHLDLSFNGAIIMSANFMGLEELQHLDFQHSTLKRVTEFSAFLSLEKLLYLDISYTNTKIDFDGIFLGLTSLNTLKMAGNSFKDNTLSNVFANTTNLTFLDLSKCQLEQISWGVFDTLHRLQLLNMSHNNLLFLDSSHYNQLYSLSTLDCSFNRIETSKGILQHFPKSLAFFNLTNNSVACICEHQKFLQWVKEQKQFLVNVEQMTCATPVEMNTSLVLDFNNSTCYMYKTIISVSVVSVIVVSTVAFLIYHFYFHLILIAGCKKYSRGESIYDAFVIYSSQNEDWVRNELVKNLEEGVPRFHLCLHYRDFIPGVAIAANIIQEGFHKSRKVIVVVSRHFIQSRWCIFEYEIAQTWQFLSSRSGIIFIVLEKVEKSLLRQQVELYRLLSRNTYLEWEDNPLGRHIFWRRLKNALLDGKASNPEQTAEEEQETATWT

[7] = Ratio of drug concentration in brain to plasma in Balb/c mouse at 2 mg/kg,iv measured after 30 mins by LC-MS/MS analysis; format: ADME, organism-based; details: 0.5 h
[8] = target: T1, Toll-like receptor 4 (Mus musculus); test: Antagonist activity at TLR4 signaling pathway in mouse BV-2 cells assessed as downregulation of LPS-induced IKKbeta phosphorylation at 5 uM incubated for 1 hr by Western blot analysis; format: cell-based; details: filed as antagonist
[9] = target: T1, Toll-like receptor 4 (Mus musculus); test: Antagonist activity at TLR4 signaling pathway in mouse BV-2 cells assessed as downregulation of LPS-induced IRAK1 phosphorylation at 5 uM incubated for 1 hr by Western blot analysis; format: cell-based
[10] = Cytotoxicity against mouse BV-2 cells incubated for 24 hrs by crystal violet staining based assay; format: toxicity, cell-based
Mus musculus [11] = test: Inhibition of morphine-induced addiction behavior in Balb/c mouse assessed as decrease in morphine-induced behavioral sensitization during induction phase at 0.005 to 0.2 mg/kg,ip administrated on day 4 to 10 by open-field test; format: functional, organism-based; details: dose 0.005-0.2 mg/kg, time 7.0 day
[12] = target: T1, Toll-like receptor 4 (Mus musculus); test: Antagonist activity at TLR4 signaling pathway in mouse BV-2 cells assessed as downregulation of LPS-induced JNK phosphorylation at 5 uM incubated for 1 hr by Western blot analysis; format: cell-based; details: filed as antagonist
Mus musculus [13] = test: Inhibition of chronic morphine-induced microglia activation in Balb/c mouse assessed as reduction in TNF-alpha mRNA expression in brain medial prefrontal cortex region at 0.2 mg/kg,ip administrated for 6 consecutive days by qPCR analysis; format: functional, organism-based
Mus musculus [14] = test: Inhibition of chronic morphine-induced microglia activation in Balb/c mouse assessed as reduction in Iba1 expression in brain medial prefrontal cortex region at 0.2 mg/kg,ip administrated for 6 consecutive days by immunofluorescence staining based analysis; format: functional, organism-based
[15] = Cmax in Balb/c mouse at 20 mg/kg,po administration and measured upto 24 hrs by LC-MS/MS analysis; format: ADME, organism-based; details: in vivo
[16] = target: T1, Toll-like receptor 4 (Mus musculus); test: Antagonist activity at TLR4 signaling pathway in mouse BV-2 cells assessed as inhibition of LPS-induced MyD88 recruitment at 5 uM incubated for 1 hr by co-immunoprecipitation based Western blot analysis; format: cell-based
Mus musculus [17] = test: Inhibition of morphine-induced addiction behavior in Balb/c mouse assessed reduction in CPP score at 0.2 mg/kg,ip administrated for 6 consecutive days by conditioned place preference assay; format: functional, organism-based
Mus musculus [18] = test: Inhibition of chronic morphine-induced microglia activation in Balb/c mouse assessed as reduction in Iba1 expression in brain ventral tegmental area region at 0.2 mg/kg,ip administrated for 6 consecutive days by immunofluorescence staining based analysis; format: functional, organism-based
[19] = Half life in Balb/c mouse at 2 mg/kg,iv administration and measured upto 24 hrs by LC-MS/MS analysis; format: ADME, organism-based; details: in vivo
Mus musculus [20] = test: Inhibition of chronic morphine-induced microglia activation in Balb/c mouse assessed as reduction in microglia cell number in brain ventral tegmental area region at 0.2 mg/kg,ip administrated for 6 consecutive days by immunofluorescence staining based analysis; format: functional, organism-based
[21] = Tmax in Balb/c mouse at 20 mg/kg,po administration and measured upto 24 hrs by LC-MS/MS analysis; format: ADME, organism-based; details: in vivo
[22] = target: T1, Toll-like receptor 4 (Mus musculus); test: Antagonist activity at TLR4 in mouse BV-2 cells assessed as inhibition of LPS-induced NF-kappaB activation at 4 uM incubated for 24 hrs by dual-glo luciferase assay; format: cell-based; details: filed as antagonist
[23] = Half life in Balb/c mouse at 20 mg/kg,po administration and measured upto 24 hrs by LC-MS/MS analysis; format: ADME, organism-based; details: in vivo
[24] = Oral bioavailability in Balb/c mouse at 20 mg/kg administration and measured upto 24 hrs by LC-MS/MS analysis; format: ADME, organism-based; details: in vivo
Mus musculus [25] = test: Inhibition of morphine-induced addiction behavior in Balb/c mouse assessed as decrease in total distance traveled in field at 0.005 to 0.2 mg/kg,ip administrated on day 4 to 10 by open-field test; format: functional, organism-based; details: dose 0.005-0.2 mg/kg, time 7.0 day

Row | SMILES | inhibition (Mus musculus [1]) | Activity [2] | inhibition (Mus musculus [3]) | inhibition (Mus musculus [4]) | inhibition (Mus musculus [5]) | Activity [6] | BPR [7] [%] | Activity [8] | Activity [9] | IC50 at 24 h [10] [µM] | inhibition (Mus musculus [11]) | Activity [12] | inhibition (Mus musculus [13]) | inhibition (Mus musculus [14]) | Cmax [15] [ng/mL] | Activity [16] | inhibition (Mus musculus [17]) | inhibition (Mus musculus [18]) | half-life [19] [h] | inhibition (Mus musculus [20]) | further results
1 | COc1ccc2c3c1O[C@@H]1C(=O)C=C[C@]4(O)[C@H](C2)N(C)CC[C@@]314 (single isomer, unassigned) | inactive | Non-Toxic | Active | Active | Active | Active | 73.6 | Active | inactive | 23.6 | Dose-Dependent Effect | Active | Active | Active | 25 | inactive | Active | Active | 0.6 | Active | Tmax [21]: 1.2 h; Activity [22]: Active; half-life [23]: 2.2 h; bioavailability [24]: 54.3%; inhibition (Mus musculus [25]): inactive
2 | CN1CC[C@@]23c4c5ccc(O)c4O[C@@H]2C(=O)C=C[C@]3(O)[C@@H]1C5 (single isomer, unassigned) | inactive | Non-Toxic | Active | Active | Active | Active | 18.4 | Active | inactive | 13.7 | Dose-Dependent Effect | Active | Active | Active | 51.5 | inactive | Active | Active | 2.2 | Active | Tmax [21]: 1.2 h; Activity [22]: Active; half-life [23]: 8.9 h; bioavailability [24]: 41.1%; inhibition (Mus musculus [25]): inactive
